Measured values as given in patent US4517004A, “Aryl phosphoric triamide and aryl phosphorodiamidate urease and nitrification inhibitors and urease and nitrification inhibited urea and reduced nitrogen based fertilizer compositions” (Allied Corporation, priority 1983, dated 1985).
Where two headings read alike, the source gives them in different places.

Experiments:
[1] = molecular target: T1, jack bean urease (Sigma, Type IX) (Canavalia ensiformis, UniProt P07374); assay: Efficacy test with commercial purified jack bean urease in homogeneous solution (modified Bremner procedure); assay type: biochemical; conditions: read-out: % Inhibition 10^-6 M
T1 construct: purchased Sigma Type IX
Method: Efficacy tests were also conducted with jack bean urease. The procedure of Bremner (see L. A. Douglas, J. M. Bremner, Soil Biol. Biochem., 3, 859-62 (1970 and references therein) was modified by replacing the soil as the source of urease with commercial purified jack bean urease (Sigma, Type IX). The incubation then proceeds in homogeneous solution. The results are generally parallel to those obtained in the soil test of Example IV and are given in Table II.

[2] = tested on: soil nitrification; assay: Nitrification inhibition efficacy test in Cazenovia silt loam soil (nitrate formed from diammonium phosphate); conditions: Cazenovia silt loam pH 7.3
Method: Efficacy tests were conducted to evaluate the efficacy of certain representative phosphoric triamide compounds as nitrification inhibitors. All compounds were evaluated in Cazenovia silt loam soil (pH 7.3). The evaluations consisted of applying either simultaneously (to) or after 14 days (t14) a solution of 6.00 mg (300 μg/g soil) at diammonium phosphate in 1 mL of water to triplicate 20 g samples of air dry soil contained in 250 mL square glass bottles that had been treated with a solution of either 0 or 0.800 mg (40 μg/g soil) of the test compound in 5 mL of water. Each bottle was capped with perforated aluminum foil, incubated for 14 days at 25° C. after diammonium phosphate application, and then extracted with 100 mL of 2M potassium chloride containing 0.5 mg (5 mg/L) of phenylmercuric acetate. Each extract was allowed to settle, and an aliquot was frozen and then analyzed for nitrate using an autoanalyzer. The percent inhibition obtained during the incubation was calculated by the formula: [formula] where A is the nitrate recovered from unincubated soil before diammonium phosphate addition; B is nitrate recovered from uninhibited soil; and C is nitrate recovered from inhibited soil.

[3] = tested on: urease in soil (Cazenovia silt loam; Plano silt loam); assay: Urease inhibition efficacy test in soil (urea remaining after incubation); assay type: biochemical; conditions: 40 micrograms compound per gram soil, 42.8 mg urea per 20 g soil, incubated 3 days at 25° C., triplicate; for % Inhibition 40 Micrograms per gram soil, Cazenovia pH 7.2: New York soil (Cazenovia silt loam)
Method: Efficacy tests were conducted to evaluate the efficacy of certain representative phosphoric triamide compounds of this invention as urease inhibitors in comparison with the known compound 4-aminophenylphosphoric triamide. The inhibition tests were run in a New York soil (Cazenovia silt loam, pH 7.0), or in Wisconsin soil (Plano silt loam). Evaluations (run in triplicate) consisted of applying 800 micrograms of the test compound in 5 mL of water and 42.8 mg of urea in 1 mL of water to 20 g of air-dry soil in a glass bottle. The bottle was capped with perforated aluminum foil and incubated at 25° C. for three days prior to extraction with 100 mL of a 2M KCl solution containing 0.5 mg of phenylmercuric acetate. The extracts were then analyzed for remaining urea using an autoanalyzer. Percent inhibition was calculated as [formula] where A is urea recovered from unincubated sample (urea added to soil and immediately extracted); B is urea recovered from inhibited sample; and C is urea recovered from the control (uninhibited sample).

[4] = compound at 10^-6 M, purified jack bean urease, homogeneous solution

T1 sequence (P07374 whole entry, looked up): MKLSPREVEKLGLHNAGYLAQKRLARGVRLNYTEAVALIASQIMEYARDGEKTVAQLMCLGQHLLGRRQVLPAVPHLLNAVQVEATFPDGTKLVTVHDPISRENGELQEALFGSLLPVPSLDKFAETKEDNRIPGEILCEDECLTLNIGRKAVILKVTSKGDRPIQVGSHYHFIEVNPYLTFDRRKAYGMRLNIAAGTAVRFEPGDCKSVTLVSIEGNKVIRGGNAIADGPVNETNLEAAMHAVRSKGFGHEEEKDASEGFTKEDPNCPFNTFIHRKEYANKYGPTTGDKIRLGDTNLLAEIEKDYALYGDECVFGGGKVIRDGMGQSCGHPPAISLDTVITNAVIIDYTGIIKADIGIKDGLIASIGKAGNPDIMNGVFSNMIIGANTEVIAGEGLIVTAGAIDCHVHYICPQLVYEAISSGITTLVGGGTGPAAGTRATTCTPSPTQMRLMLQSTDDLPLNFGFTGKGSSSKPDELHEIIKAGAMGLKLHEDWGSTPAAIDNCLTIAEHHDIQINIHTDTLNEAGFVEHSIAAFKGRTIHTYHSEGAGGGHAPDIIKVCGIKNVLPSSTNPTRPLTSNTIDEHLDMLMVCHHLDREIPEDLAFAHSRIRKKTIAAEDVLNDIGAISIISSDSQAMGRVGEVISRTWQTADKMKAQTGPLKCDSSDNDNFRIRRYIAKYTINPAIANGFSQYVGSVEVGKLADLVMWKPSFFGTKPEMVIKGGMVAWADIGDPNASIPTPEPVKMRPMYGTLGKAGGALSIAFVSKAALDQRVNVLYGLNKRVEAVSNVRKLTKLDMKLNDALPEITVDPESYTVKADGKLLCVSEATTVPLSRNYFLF

| Compound | inhibition at 1 µM [1, 4] | % Inhibition at 40 μg per gram of soil, t14 ([2]; diammonium phosphate (300 μg/g soil) applied 14 days after compound (t14), 14 days at 25° C. after application) | % Inhibition at 40 μg per gram of soil, t0 ([2]; diammonium phosphate (300 μg/g soil) applied simultaneously with compound (t0), 14 days at 25° C.) | % Inhibition 40 Micrograms per gram soil, Cazenovia pH 7.2 [3] | inhibition at 1 µM [1] | % Inhibition 40 Micrograms per gram soil, Wisconsin pH 5.4 ([3]; Wisconsin soil (Plano silt loam), pH 5.4) |
| --- | --- | --- | --- | --- | --- | --- |
| CC(C)(C)c1cc(OP(N)(N)=O)ccc1O [Phosphorodiamidic Acid 3-(1',1'-dimethylethyl)-4-hydroxyphenyl Ester] | 29% | 0% | 39% | 87% | – | – |
| Nc1ccc(NP(N)(N)=O)cc1 [4-Aminophenylphosphoric triamide, 4-aminophenylphosphoric triamide, reference compound] | – | – | – | 55% | 0% | – |
| CN(c1ccc(O)cc1)P(N)(N)=O [N-(Methyl)-N-(4-hydroxyphenyl) Phosphoric triamide] | – | – | – | 87% | – | 33% |
| Nc1ccc(OP(N)(N)=O)cc1 [4-Aminophenylphosphorodiamidate, 4-aminophenylphosphorodiamidate] | 80% | – | – | 91% | – | – |
